What was measured:
[1] = ABTS-assay, anti-oxidative capacity (inhibition of radical formation); format: biochemical; settings: for IC50: ABTS radical cation, absorption at 734 nm, mean value from at least 2 independent tests
Experimental: 6-Paradol is a known antioxidant. With the help of the ABTS-assay the anti-oxidative capacity of [6]-paradol and alpha-tocopherol was compared.
2,2′-azino bis-(3-ethylbenzothiazoline 6-sulfonic acid) (ABTS) was transformed by potassium persulfate into the blue-green radical cation ABTS•^+. Through the addition of [6]-paradol and alpha-tocopherol the radical cations were reduced and discoloration was observed, which was determined photometrically by Absorption at 734 nm. The inhibition of the radical formation of the test substance is calculated by the following formula:
[formula] Wherein the abbreviations have the following meanings: • Atest substance: Absorption of the wells with test substance including [6]-paradol and alpha-tocopherol • Acontrol: Absorption of the wells without test substance
From the inhibition of the radical formation [%] in a series of dilutions of tested samples the IC50 was calculated. This is the concentration at which the radical formation is inhibited by 50%.

[2] = Stabilization of avocado oil, absorbance at 232 nm (conjugated dienes); format: physicochemical; settings: compared to avocado oil without additive or to alpha-tocopherol 0.5%
Experimental: To evaluate the odor protecting effect of [6]-paradol on oils, oil samples comprising avocado oil without (A) and with different additives (B to D) were prepared as given in Table 5.
(§1) The oil samples were divided respectively into 3 portions, wherein one part was exposed to artificial UV light in a suntest device (Original Hanau-Xenon lamp) for 8 hours 550-600 W/m^2 (300 to 800 nm). The other two portions were stored for 1 month either at room temperature exposed to normal daylight (RTL) or at 50° C. in a heating cabinet (50° C.), respectively. After the treatments, the absorbance at 232 nm was determined as this positive correlates with the state of oxidation by detecting conjugated dienes as specific oxidized compounds.

[3] = tested on: DMBA-treated hamsters; settings: oral 30 mg/kg b.w. on alternate days for 14 weeks; cited from earlier work
[4] = tested on: oxidized DNA bases; settings: in vitro; cited from earlier work
[5] = Stabilization of argan oil, absorbance at 232 nm (conjugated dienes); format: physicochemical; settings: compared to argan oil without additive or to alpha-tocopherol 0.5%
Experimental: To evaluate the protecting effect of oils from oxidation, oil samples comprising argan oil without (A) and with different additives (B to D) were prepared as given in Table 8.
as §1, with “oils” for “oil samples”, “divided” for “divided respectively”, “portions each. One portion” for “portions, wherein one part”, “this” for “this positive”

[6] = Color measurement (CIELAB L*a*b*, ΔE) of anti-aging cream containing a retinoid after suntest; format: physicochemical
Experimental: Retinoids such as e.g. retinol are potent anti-aging cosmetic agents known to be unstable and prone to discoloration upon light exposure and longer storage at higher temperatures (e.g. >30° C.).
The phase A was heated to 80° C. For phase B, Carbopol Ultrez 21 was sprinkled at the surface of the water for swelling. Afterwards, glycerin was added and phase B was heated up to 80°. Then phase B was added to phase A under strong agitation with an Ultra Turrax. The formula was cooled down and phase C was added at around 40° C. Afterwards, the formula was neutralized with sodium hydroxide to get pH 5-5.5. When the formula was at room temperature, phase E was added under agitation. Final pH was checked to be 5-5.5.
The cream samples were exposed to artificial UV light in a suntest device (Original Hanau-Xenon lamp) for 8 hours 550-600 W/m^2 (300 to 800 nm). Afterwards, they were evaluated for discoloration by measurement of L*a*b* values and calculation of the color difference ΔE as described in example 8.

| IC50 [1] [µM] | protective effect on avocado oil (in words) [2] | protective effect on argan oil (in words) [5] | SMILES | radical scavenging activity better than alpha-tocopherol ([1]; comparison of IC50 values) [fold] | status of antioxidants [3] | H2O2- and UV-induced formation of oxidized DNA bases [4] | color protection of retinol (in words) [6] |
| --- | --- | --- | --- | --- | --- | --- | --- |
| 17.4 | lower increase of absorbance at 232 nm | lower increase of absorbance at 232 nm | CCCCCCCC(=O)CCc1ccc(O)c(OC)c1 [[6]-paradol, 1-(4-hydroxy-3-methoxyphenyl)-decan-3-one] | 1.5 | significantly improved the status of antioxidants | attenuated |  |
| 26.8 |  |  | Cc1c(C)c2c(c(C)c1O)CC[C@@](C)(CCC[C@H](C)CCC[C@H](C)CCCC(C)C)O2 [alpha-tocopherol, reference compound] |  |  |  | unsuitable for protecting retinol from discoloration |

Reference: US12226501B2, “Composition with stabilized taste and odor” (Symrise AG, priority 2015, dated 2025)
